The source made the active and inactive calls.
Legend:
Beta Lactamase [1] = target: T1, Beta Lactamase (Pseudomonas aeruginosa, UniProt Q932Y6); test: VIM-2 CCF2 hydrolysis inhibition, assay artifact filter – biochemical, FRET readout, CCF2 substrate, artefact control for selective VIM-2 inhibitor project, dose response (AID 1926)
Beta-lactamase [2] = target: Beta-lactamase (Salmonella choleraesuis (strain SC-B67), UniProt Q5J463); test: Epi-absorbance-based counterscreen for selective VIM-2 inhibitors: dose response biochemical high throughput screening assay to identify inhibitors of TEM-1 serine-beta-lactamase.
Beta-lactamase [3] = target: T2, Beta-lactamase (Pseudomonas aeruginosa, UniProt Q79MP6); test: inhibition of IMP-1 beta-lactamase activity – biochemical, epi-absorbance, selectivity assay for VIM-2 inhibitor project, dose response (AID 1920)
Beta-lactamase [4] = target: T2, Beta-lactamase; test: […] counterscreen for selective VIM-2 inhibitors: dose response biochemical high throughput screening assay to identify inhibitors of IMP-1 metallo-beta-lactamase.
Beta Lactamase [5] = target: T1, Beta Lactamase; test: concentration-dependent VIM-2 enzyme inhibition – biochemical, epi-absorbance readout, selective inhibitors, dose response (AID 1919)
[6] = alpha-synuclein stem-loop luciferase translation blockers – H4 neuroglioma cells, luminescence, confirmation (AID 1988); format: functional, cell-based
[7] = target: Photoreceptor-specific nuclear receptor (Homo sapiens, UniProt Q9Y5X4); format: functional, cell-based;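 also: CHO-S cells with Gal4-NCOR and VP16-NR2E3 two-hybrid luciferase reporter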
[8] = blockade of melanocortin 4 receptor signaling – cell-based, plate reader, cherry pick, counter-screen for LGR2 antagonist project, dose response (AID 743444); format: functional;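 also: transfected HEK 293 cells stimulated with alpha-MSH peptide; potency of inhibitors of the alpha-MSH evoked signal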
[9] = target: T3, Heat shock factor protein 1 (Mus musculus, UniProt P38532); test: decrease of HSF1-responsive luciferase luminescence – cell-based, NIH3T3, dose retest, confirmation (AID 2382); format: functional;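 also: NIH3T3 fibroblasts with HSF1-driven luciferase reporter stressed by proteasome inhibitor MG132; luminescence from HSF1-driven luciferase expression after 8 hours of MG132 stress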
T3 sequence (P38532 whole entry): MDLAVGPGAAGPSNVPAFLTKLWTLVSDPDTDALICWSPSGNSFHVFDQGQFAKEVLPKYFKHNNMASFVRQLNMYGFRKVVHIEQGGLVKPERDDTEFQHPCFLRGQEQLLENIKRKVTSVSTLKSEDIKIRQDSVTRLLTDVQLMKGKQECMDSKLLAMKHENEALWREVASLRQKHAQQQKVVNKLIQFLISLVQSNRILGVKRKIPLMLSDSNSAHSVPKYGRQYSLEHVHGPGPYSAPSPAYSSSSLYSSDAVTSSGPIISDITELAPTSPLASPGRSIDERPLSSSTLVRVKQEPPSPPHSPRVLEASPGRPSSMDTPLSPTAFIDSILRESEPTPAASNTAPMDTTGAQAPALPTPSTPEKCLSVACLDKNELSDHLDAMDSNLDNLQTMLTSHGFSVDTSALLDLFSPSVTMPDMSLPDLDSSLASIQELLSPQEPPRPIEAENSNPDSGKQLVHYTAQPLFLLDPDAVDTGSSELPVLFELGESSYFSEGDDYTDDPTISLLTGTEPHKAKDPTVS

[10] = Luminescence Cell-Based Dose Response HTS to Identify Inhibitors of 5'UTR Stem-Loop Driven Prion Protein mRNA Translation in H4 Neuroglioblastoma Cells. [Related pubchem assays: 1827 (Project Summary), 1813 (Primary HTS)]; format: functional
[11] = viability loss in HEK293 cells – cell-based, plate reader, cherry-picked samples, cytotoxicity control, dose response (AID 743446); format: functional
[12] = luciferase reporter signal reduction – luminescence, H4-C neuroglioblastoma cells, dose response (AID 2458); format: functional, cell-based;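 also: H4 neuroglioblastoma cells stably carrying a luciferase reporter gene fusion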
[13] = toxicity toward HepG2 liver cells – cell-based, plate reader, cherry-pick, antagonist series, cytotoxicity control, dose response (AID 743416); format: functional
[14] = alpha-synuclein stem-loop translation blockers – luminescence, H4 neuroglioblastoma cells, dose confirmation, confirmation (AID 2454); format: functional, cell-based;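 also: H4 neuroglioblastoma cells carrying an alpha-synuclein 5'UTR luciferase reporter; potency for inhibition of the luciferase signal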
[15] = blockers of bursicon-stimulated LGR2 cAMP reporter – cell-based, HEK293, CRE-luciferase reporter, cherry pick, set 2, dose response (AID 743343); format: functional;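 also: transfected cells were stimulated with diluted bursicon conditioned medium after compound addition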
cells = format: functional, cell-based
[16] = A549 cell cytotoxicity, dose response, cytotoxicity control, plate reader, cherry-pick, antagonist series (AID 743412); format: functional, cell-based
[17] = activation of miR-122 Renilla sensor silencing – cell-based, Huh7 psiCHECK-miR122, Renilla luciferase, cherry-picked, dose response (AID 651956); format: functional;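 also: huh7 hepatoma cells stably carrying a psiCHECK-2 miR-122 sensor plasmid; renilla luciferase signal reporting endogenous miR-122 activity after 48 h compound exposure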
[18] = target: T4, Sentrin-specific protease 1 (Homo sapiens, UniProt Q9P0U3); test: SENP1 catalytic domain blockers, concentration series – biochemical, kinetic FRET, dose response (AID 651697); format: functional; settings: read-out: IC50_Mean
[19] = viability of uninfected HEp-2 cells – cell-based, HTS, cytotoxicity control for RSV inhibitor project, dose response (AID 2410); format: functional; settings: human respiratory syncytial virus
[20] = target: T4, Sentrin-specific protease 1; test: Dose response confirmation of small molecule inhibitors of the catalytic domain of the SUMO protease, SENP1 in a FRET assay.; format: functional; settings: read-out: IC50_Mean
[21] = NIH3T3 cell viability loss – ATP luminescence, mouse fibroblasts, counter-screen, dose response (AID 2010); format: functional, cell-based;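 also: cells exposed to compound for about 90 hours before reading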
[22] = viability loss of HPDE-C7K cells – cell-based, fluorescence, HTS, primary screen (AID 431); format: functional; settings: Homo sapiens
[23] = target: Glucose-6-phosphate 1-dehydrogenase (Homo sapiens, UniProt P11413); test: inhibition of Homo sapiens G6PD, dose series – biochemical, fluorescence, selectivity assay for P. falciparum G6PD inhibitor project, dose response (AID 504792); format: functional
[24] = HEK-293T cell viability reduction – luminescence, B-cell screen hits, cytotoxicity control for BCR NF-kB inhibitor project, dose response (AID 489021); format: functional, cell-based;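 also: HEK-293T cells carrying an NF-kB luciferase reporter; cells exposed to compound for about 14 hours before viability readout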
HT-1080 = test: HT1080 cell viability loss – fluorescence readout (AID 620); format: functional, cell-based; settings: Homo sapiens
[25] = viability of HCT116 lacking mutant beta-catenin – cell-based, human colon tumor, dose response (AID 1045); format: functional;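 also: HCT116 colon tumor cells with beta catenin knocked out; cells exposed to compound for 60 hours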
[26] = viability of PTEN-deleted HCT116 cells – cell-based, HCT116 PTEN knockout, dose response (AID 1047); format: functional;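 also: HCT116 colon tumor cells with PTEN knocked out; cells exposed to compound for 60 hours before readout; potency for loss of cell viability measured by luminescence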
[27] = target: FAD-linked sulfhydryl oxidase ALR (Homo sapiens, UniProt P55789); test: ALR-catalysed DTT oxidation blockers – biochemical, H2O2 detection, luminescence, cherry-pick, dose response (AID 493248)
[28] = HPDE-C7 pancreatic duct cell viability loss – fluorescence, HTS (AID 430); format: functional, cell-based; settings: Homo sapiens
[29] = target: Hepatocyte nuclear factor 4-alpha (Homo sapiens, UniProt P41235); format: functional, cell-based;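 also: biochemical luminescence-based dose-response counterscreen measuring inhibition of HNF4 dimerization, run alongside a screen for blockers of ABHD5–perilipin-5 interaction; split luciferase complementation of HNF4 fusion proteins in cell lysate measuring dimerization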
[30] = target: Luciferin 4-monooxygenase (Photinus pyralis, UniProt P08659); test: Counter Screen for Luciferase-based Assay Positives. [Related pubchem assays: 620, 618, 411 ]
[31] = Trypanosoma cruzi growth suppression in host cells – NIH3T3 host cells, beta-gal luminescence, confirmation (AID 2044); format: functional, cell-based;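 also: intracellular parasites grown in NIH/3T3 mouse fibroblasts as host cells; luminescent beta-galactosidase reporter signal from transgenic T. cruzi replicating inside host cells; inhibitors lower the luminescence signal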
[32] = target: T5, Methionyl-tRNA synthetase, putative (Trypanosoma brucei brucei, UniProt Q38C91); format: functional, Trypanosoma brucei brucei strain 927/4 GUTat10.1
[33] = Counterscreen for inhibitors of Trypanosoma brucei methionyl tRNA synthetase (MetRS): Luminescence-based cell-based high throughput dose response assay to identify compounds that are cytotoxic to Jurkat human T lymphocyte cells.; format: functional
[34] = target: T5, Methionyl-tRNA synthetase, putative; format: functional, Trypanosoma brucei brucei strain 927/4 GUTat10.1; remark: listed apart in the source
[35] = target: T6, Sentrin-specific protease 8 (Homo sapiens, UniProt Q96LD8); format: functional
T6 sequence (Q96LD8 whole entry): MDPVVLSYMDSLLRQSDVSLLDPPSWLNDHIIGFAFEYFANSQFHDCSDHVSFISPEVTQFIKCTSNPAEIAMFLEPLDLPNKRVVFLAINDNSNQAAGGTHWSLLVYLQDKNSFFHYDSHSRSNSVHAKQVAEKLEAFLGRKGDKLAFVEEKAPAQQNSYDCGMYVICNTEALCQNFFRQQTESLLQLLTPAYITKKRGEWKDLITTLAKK

[36] = target: T6, Sentrin-specific protease 8; format: functional; remark: listed apart in the source
Caspase-3 = target: T7, Caspase-3 (Homo sapiens, UniProt P42574); test: Dose-response confirmation of uHTS inhibitor hits of Sentrin-Specific Protease 8 in a Caspase-3 Fluorescence assay.; format: functional
T7 sequence (P42574 whole entry): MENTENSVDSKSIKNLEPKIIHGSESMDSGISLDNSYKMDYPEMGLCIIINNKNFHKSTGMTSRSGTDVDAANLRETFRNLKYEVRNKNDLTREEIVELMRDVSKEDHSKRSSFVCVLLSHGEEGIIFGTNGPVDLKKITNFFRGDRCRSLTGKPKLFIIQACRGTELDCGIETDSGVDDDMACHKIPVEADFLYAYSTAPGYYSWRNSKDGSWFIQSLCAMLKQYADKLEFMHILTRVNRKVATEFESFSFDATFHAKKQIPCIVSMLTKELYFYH

Caspase-6 = target: T8, Caspase-6 (Homo sapiens, UniProt P55212); test: inhibition of CASP6 peptide cleavage – biochemical, VEID-R110 fluorescence, cherry-pick, dose response (AID 720632)
T8 sequence (P55212 whole entry): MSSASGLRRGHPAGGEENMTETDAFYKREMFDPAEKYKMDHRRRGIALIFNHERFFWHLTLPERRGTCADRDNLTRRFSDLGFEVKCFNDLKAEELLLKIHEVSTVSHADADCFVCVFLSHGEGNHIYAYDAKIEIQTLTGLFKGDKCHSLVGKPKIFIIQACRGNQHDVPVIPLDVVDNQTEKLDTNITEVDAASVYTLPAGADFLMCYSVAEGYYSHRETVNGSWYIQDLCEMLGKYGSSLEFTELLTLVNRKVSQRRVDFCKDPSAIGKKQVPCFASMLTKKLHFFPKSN

[37] = viability loss in HeLa cells – cytotoxicity control for MgcRacGAP inhibitor project, dose response (AID 624300); format: functional
[38] = target: T9, Rac GTPase-activating protein 1 (Homo sapiens, UniProt Q9H0H5); test: blockers of MgcRacGAP-driven Rac1 GTP hydrolysis – biochemical, ADP Hunter fluorescence, primary and confirmatory, confirmation (AID 624330); format: functional
T9 sequence (Q9H0H5 whole entry): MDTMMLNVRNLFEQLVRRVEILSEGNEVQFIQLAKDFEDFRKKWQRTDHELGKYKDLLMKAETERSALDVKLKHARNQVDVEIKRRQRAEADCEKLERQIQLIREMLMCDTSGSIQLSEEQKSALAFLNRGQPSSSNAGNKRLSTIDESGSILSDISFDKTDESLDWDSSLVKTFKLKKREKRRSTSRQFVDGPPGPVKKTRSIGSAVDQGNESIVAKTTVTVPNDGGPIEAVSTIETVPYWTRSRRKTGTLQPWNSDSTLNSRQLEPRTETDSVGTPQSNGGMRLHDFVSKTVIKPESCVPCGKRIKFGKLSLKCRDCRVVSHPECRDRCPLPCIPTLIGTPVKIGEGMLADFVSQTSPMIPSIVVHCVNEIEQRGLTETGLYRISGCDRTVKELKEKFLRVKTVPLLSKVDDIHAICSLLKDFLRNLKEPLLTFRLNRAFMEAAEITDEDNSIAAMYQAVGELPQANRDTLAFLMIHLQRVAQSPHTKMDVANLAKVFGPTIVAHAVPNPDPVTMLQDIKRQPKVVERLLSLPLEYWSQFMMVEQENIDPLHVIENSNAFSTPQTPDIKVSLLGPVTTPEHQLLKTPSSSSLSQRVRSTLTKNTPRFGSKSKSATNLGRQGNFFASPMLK

T4 sequence (Q9P0U3 whole entry, the tested form may be a part): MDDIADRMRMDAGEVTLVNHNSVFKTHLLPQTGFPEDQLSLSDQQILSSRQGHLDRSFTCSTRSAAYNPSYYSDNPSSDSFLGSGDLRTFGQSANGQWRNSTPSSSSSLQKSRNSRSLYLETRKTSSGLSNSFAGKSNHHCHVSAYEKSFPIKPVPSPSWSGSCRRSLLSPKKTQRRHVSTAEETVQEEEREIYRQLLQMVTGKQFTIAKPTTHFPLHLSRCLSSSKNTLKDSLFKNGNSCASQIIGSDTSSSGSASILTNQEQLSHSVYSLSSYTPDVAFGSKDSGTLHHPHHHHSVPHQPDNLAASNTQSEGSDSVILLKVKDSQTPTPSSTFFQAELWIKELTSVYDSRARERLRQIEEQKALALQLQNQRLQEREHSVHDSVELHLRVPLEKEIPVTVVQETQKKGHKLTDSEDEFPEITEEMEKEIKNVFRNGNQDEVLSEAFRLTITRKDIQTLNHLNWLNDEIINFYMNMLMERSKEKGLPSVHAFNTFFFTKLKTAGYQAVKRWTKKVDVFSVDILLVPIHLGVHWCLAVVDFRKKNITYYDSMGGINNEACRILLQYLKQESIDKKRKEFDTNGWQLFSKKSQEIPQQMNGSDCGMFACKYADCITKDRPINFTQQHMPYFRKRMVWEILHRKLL
T1 sequence (Q932Y6 whole entry): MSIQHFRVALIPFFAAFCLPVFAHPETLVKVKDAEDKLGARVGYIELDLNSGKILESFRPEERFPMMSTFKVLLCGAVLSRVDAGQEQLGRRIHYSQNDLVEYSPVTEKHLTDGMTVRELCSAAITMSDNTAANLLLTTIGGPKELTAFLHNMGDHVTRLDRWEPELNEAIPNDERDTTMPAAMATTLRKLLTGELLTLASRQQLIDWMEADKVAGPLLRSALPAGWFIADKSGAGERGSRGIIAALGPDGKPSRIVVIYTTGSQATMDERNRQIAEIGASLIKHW
T2 sequence (Q79MP6 whole entry): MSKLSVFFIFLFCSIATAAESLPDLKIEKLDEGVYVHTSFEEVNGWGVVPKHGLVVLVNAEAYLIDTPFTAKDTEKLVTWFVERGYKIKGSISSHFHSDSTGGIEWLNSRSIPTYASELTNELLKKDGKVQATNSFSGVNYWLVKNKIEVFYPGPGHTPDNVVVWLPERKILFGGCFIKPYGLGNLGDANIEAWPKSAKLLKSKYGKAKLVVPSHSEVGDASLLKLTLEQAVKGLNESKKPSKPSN
T5 sequence (Q38C91 whole entry): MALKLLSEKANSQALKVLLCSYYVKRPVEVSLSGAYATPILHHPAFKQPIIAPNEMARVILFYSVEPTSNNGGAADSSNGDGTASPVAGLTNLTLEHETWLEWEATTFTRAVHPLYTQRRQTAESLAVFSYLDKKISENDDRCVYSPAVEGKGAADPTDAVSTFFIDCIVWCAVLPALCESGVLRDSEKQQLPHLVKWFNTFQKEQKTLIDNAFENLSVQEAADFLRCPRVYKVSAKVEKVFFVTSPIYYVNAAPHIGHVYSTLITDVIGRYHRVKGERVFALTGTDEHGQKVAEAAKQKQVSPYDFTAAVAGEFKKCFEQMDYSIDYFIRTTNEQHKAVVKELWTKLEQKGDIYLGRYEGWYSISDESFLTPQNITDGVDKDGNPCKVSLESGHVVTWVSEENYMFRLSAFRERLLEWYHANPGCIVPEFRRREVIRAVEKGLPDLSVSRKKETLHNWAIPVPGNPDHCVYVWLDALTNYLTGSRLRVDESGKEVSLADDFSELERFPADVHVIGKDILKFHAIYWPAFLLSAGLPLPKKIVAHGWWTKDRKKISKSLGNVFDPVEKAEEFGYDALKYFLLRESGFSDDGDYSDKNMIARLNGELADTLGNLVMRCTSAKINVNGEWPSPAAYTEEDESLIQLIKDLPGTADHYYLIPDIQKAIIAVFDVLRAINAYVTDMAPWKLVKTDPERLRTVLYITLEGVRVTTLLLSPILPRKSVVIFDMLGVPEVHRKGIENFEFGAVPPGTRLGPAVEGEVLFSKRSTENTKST
Chain of Glucose-6-phosphate 1-dehydrogenase (P11413 whole entry): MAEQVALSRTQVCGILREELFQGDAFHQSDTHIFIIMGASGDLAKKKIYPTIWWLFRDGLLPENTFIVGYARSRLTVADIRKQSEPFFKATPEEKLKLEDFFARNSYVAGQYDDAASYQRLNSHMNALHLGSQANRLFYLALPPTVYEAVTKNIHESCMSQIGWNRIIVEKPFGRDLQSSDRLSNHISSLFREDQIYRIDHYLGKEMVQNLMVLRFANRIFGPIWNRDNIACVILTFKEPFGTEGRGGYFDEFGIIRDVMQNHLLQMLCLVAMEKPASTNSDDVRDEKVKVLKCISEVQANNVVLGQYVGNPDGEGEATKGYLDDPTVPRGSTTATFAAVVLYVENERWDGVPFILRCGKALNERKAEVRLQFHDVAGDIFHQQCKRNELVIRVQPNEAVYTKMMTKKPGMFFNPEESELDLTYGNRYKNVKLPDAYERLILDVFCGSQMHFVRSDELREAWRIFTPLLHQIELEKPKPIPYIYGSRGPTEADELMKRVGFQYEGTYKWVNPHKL
Chain of Photoreceptor-specific nuclear receptor (Q9Y5X4 whole entry, the tested form may be a part): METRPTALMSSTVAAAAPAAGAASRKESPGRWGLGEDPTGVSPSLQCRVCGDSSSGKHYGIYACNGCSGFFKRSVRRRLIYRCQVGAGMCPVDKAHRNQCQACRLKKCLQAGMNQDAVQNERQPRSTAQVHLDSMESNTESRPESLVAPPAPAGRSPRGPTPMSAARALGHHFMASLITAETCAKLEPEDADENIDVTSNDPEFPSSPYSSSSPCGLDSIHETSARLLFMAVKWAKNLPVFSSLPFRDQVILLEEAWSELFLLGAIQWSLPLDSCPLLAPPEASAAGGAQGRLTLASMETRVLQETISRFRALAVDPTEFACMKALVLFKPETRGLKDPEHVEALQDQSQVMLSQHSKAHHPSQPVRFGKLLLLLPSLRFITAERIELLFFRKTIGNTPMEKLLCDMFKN
Chain of Beta-lactamase (Salmonella choleraesuis (strain SC-B67), UniProt Q5J463) (Q5J463 whole entry): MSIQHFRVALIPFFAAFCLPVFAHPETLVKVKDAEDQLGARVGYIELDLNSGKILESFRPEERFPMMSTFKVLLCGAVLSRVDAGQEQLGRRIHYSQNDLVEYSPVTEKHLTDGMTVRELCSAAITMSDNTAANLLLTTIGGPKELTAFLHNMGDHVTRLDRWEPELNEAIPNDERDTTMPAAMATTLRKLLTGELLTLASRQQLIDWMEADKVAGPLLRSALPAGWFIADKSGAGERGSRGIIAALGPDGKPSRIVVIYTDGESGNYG
Chain of Luciferin 4-monooxygenase (P08659 whole entry): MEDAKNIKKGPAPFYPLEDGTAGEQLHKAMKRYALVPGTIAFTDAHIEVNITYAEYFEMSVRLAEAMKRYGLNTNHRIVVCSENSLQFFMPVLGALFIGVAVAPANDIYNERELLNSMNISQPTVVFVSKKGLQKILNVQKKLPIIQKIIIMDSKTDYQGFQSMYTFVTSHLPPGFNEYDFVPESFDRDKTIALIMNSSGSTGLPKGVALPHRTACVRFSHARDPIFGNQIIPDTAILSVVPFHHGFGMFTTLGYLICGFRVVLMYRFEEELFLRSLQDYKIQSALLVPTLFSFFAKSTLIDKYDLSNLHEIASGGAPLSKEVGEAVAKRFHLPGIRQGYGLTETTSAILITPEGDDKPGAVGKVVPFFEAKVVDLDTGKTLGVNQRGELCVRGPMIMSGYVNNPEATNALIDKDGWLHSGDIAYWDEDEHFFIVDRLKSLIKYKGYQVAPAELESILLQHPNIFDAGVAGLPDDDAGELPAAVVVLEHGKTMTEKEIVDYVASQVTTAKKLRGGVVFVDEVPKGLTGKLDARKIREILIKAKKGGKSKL
Chain of FAD-linked sulfhydryl oxidase ALR (P55789 whole entry): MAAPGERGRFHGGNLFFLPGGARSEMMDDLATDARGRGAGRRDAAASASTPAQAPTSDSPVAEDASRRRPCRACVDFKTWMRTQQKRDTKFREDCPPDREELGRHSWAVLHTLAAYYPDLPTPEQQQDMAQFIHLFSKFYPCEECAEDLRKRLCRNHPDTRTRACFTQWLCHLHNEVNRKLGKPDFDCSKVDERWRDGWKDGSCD
Chain of Hepatocyte nuclear factor 4-alpha (P41235 whole entry, the tested form may be a part): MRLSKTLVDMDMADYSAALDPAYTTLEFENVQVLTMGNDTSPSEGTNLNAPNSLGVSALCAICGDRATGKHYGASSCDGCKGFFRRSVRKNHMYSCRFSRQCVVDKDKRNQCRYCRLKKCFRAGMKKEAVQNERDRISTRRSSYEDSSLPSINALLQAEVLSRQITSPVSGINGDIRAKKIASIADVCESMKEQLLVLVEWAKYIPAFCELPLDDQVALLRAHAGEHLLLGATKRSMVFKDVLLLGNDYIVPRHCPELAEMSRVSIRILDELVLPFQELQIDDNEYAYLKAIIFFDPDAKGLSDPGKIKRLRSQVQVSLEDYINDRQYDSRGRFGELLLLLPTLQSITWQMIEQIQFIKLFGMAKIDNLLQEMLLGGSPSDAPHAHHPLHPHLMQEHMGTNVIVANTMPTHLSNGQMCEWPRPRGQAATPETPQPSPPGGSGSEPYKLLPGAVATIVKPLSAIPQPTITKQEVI

Structure (SMILES): O=C(C1=C(O)C(=O)N(Cc2cccnc2)C1c1ccccn1)c1ccccc1 (configuration not stated)
- IC50 (Beta Lactamase [1]): 2.17 µM (active)
- IC50 (Beta-lactamase [2]): > 59.6 µM (inactive)
- IC50 (Beta-lactamase [3]): > 59.6 µM (inactive)
- IC50 (Beta-lactamase [4]): > 59.6 µM (inactive)
- IC50 (Beta Lactamase [5]): 5 µM (active)

Structure (SMILES): Cc1cc(C(=O)Nc2ccc(Cl)cc2)c(C)n1-c1ccccc1
- EC50 [6]: < 0.1 µM (active)
- IC50 [7]: 0.017 µM (active)
- AC50 [8]: < 0.068 µM (active)
- EC50 [9]: < 0.16 µM (active)
- EC50 [10]: 8.36 µM (active)
- AC50 [11]: > 52 µM (inactive)
- EC50 [12]: 0.409 µM (active)
- AC50 [13]: > 52 µM (inactive)
- EC50 [14]: 0.149 µM (active)
- AC50 [15]: < 0.068 µM (active)
- EC50 (cells): 1.43 µM (active)
- AC50 [16]: > 52 µM (inactive)

Structure (SMILES): CC(C)(C)c1ccc(S(=O)(=O)NCCc2ccncc2)cc1
- AC50 [17]: 25 µM (active)

Structure (SMILES): COc1ccc(-c2ccc3c(c2)S(=O)(=O)c2cccc(C(=O)NCCOc4ccccc4)c2C3=O)cc1OC
- IC50 [18]: 10.5 µM (active)
- CC50 [19]: 46.1 µM (active)
- IC50 [20]: 8.3 µM (active)

Structure (SMILES): CC1=CC(C)(C)Nc2ccc(OC(=O)CN3C(=O)CCC3=O)cc21
- EC50 [21]: 8.86 µM (active)
- EC50 [22]: 8.75 µM (active)
- IC50 [23]: 54 µM (inactive)
- IC50 [24]: 48.4 µM (inactive)
- EC50 (HT-1080): > 50 µM (not active)
- EC50 [25]: 5.71 µM (active)
- EC50 [26]: 8.84 µM (active)
- AC50 [27]: 2.79 µM (active)
- EC50 [28]: 7.45 µM (active)
- IC50 [29]: 9.33 µM (active)
- EC50 [30]: 0.79 µM (active)
- EC50 [31]: 2.93 µM (active)

Structure (SMILES): O=C(NCCCCc1ccccc1)Nc1cccc(F)c1
- IC50 [32]: 11.9 µM (inactive)
- IC50 [33]: 83.3 µM (inactive)
- IC50 [34]: 15.5 µM (inactive)

Structure (SMILES): O=C(COC(=O)c1ccc([N+](=O)[O-])o1)NCc1ccc(F)cc1
- IC50 [35]: 6.4 µM (active)
- IC50 [36]: 11.7 µM (active)
- IC50 (Caspase-3): 99.7 µM (inactive)
- AC50 (Caspase-6): 40.7 µM (active)

Structure (SMILES): COc1cc(/C=N/NC(=O)NC23CC4CC(CC(C4)C2)C3)ccc1O
- CC50 [37]: 100 µM (active)
- IC50 [38]: 54.5 µM (active)

— ChEMBL document CHEMBL1201862, “PubChem BioAssay data set” (2004)
